Data: patent US6815557B2, “Tryptase inhibitors” (Altana Pharma AG, priority 1999, dated 2004)
Counter-ions that a name gives are not always drawn.

Target: human tryptase
Assay: Inhibition of human tryptase (apparent dissociation constant Kiapp, chromogenic substrate tos-Gly-Pro-arg-pNA, heparin-stabilized)
Format: biochemical
Conditions: apparent dissociation constant in the presence of substrate; human tryptase from lung tissue or recombinant; heparin 0.1-50 μg/ml; equilibrium conditions
Source text: The documented pathophysiological effects of mast cell tryptase are caused directly by the enzymatic activity of the protease. Accordingly, they are reduced or blocked by inhibitors which inhibit the enzymatic activity of the tryptase. A suitable measure for the affinity of a reversible inhibitor to the target protease is the equilibrium dissociation constant Ki of the enzyme-inhibitor complex. This Ki value can be determined via the effect of the inhibitor on the tryptase-induced cleavage of a chromogenic peptide-p-nitroanilide substrate or a fluorogenic peptide-aminomethylcoumarin substrate.
The dissociation constants for the tryptase-inhibitor complexes are determined under equilibrium conditions in accordance with the general proposals of Bieth (Bieth J G, Pathophysiological Interpretation of kinetic constants of protease inhibitors, Bull. Europ. Physiopath. Resp. 16:183-195, 1980) and the methods of Sommerhoff et al. (Sommerhoff C P et al., A Kazal-type inhibitor of human mast cell tryptase: Isolation from the medical leech Hirudo medicinalis, characterization, and sequence analysis, Biol. Chem. Hoppe-Seyler 375: 685-694, 1994).
Human tryptase is isolated from lung tissue or prepared recombinantly; the specific activity of the protease, determined by titration, is usually greater than 85% of the theoretical value. […] After an equilibrium between the reaction partners has formed, the remaining enzyme activity after addition of the peptide-p-nitroanilide substrate tos-Gly-Pro-arg-pNA is determined and the cleavage of the latter is monitored at 405 nm for 3 min. Alternatively, the remaining enzymatic activity can also be determined using fluorogenic substrates. The apparent dissociation constants Kiapp (i.e. in the presence of substrate) are subsequently determined by adapting the enzyme rates to the general equation for reversible inhibitors (Morrison J F, Kinetics of the reversible inhibition of enzyme-catalyzed reactions by tight-binding inhibitors, Biochim. Biophys. Acta 185, 269-286, 1969) using non-linear regression: […]

Work on `NCc1ccc(CNC(=O)OCC#CC#CCOC(=O)NCc2ccc(CN)cc2)cc1` [Compound 2, 1,6-Bis-(4-aminomethylbenzylaminocarbonyl-1-oxy-2,4-hexadiynedihydrochloride] yielded a Ki of 450 nM.

For `NCc1cccc(CNC(=O)OCC#CCOC(=O)NCc2cccc(CN)c2)c1` [Compound 3, 1,4-Bis-(3-aminomethylbenzylaminocarbonyl-1-oxy)-2-butyne dihydrochloride], the Ki was 100 nM.

Work on `NCc1cccc(CNC(=O)OCCOCC#CCOCCOC(=O)NCc2cccc(CN)c2)c1` [Compound 1, 1,4-Bis-(3-aminomethylbenzylaminocarbonyl-1,2-dioxyethyl)-2-butyne dihydrochloride] yielded a Ki of 6 nM.
